Source: patent US20120258926A1, “FORMULATIONS OF ACADESINE” (priority 2009, published 2012)
≈ marks a conversion by molar mass, not a printed value. Read-outs that look alike come from different tables or passages of the source.

Assay: Solubility data of acadesine in injectable solution
Assay type: physicochemical

solubility (5° C., injectable solution pH 6.0-8.0 (with antioxidant), read-out: solubility data supports): 18 mg/mL (≈ 69.7 mM)
solubility (5° C., injectable solution pH 7.2-8.0, read-out: solubility data supports): 18 mg/mL (≈ 69.7 mM)
solubility (5° C., injectable solution pH range 8.8-9.6, read-out: Available solubility data supports up to): ≤ 21.5 mg/mL
solubility (5 °C, injectable solution pH 8.8-9.6, read-out: solubility data supports): 18 mg/mL (≈ 69.7 mM)
solubility (Room temperature, injectable solution pH 6.0-8.0 (with antioxidant), read-out: solubility data supports): 60 mg/mL (≈ 232 mM)
solubility (Room temperature, injectable solution pH 7.2-8.0, read-out: solubility data supports): 60 mg/mL (≈ 232 mM)
solubility (Room temperature, injectable solution pH 8.8-9.6, read-out: solubility data supports): 60 mg/mL (≈ 232 mM)
SMILES: NC(=O)c1ncn([C@@H]2O[C@H](CO)[C@@H](O)[C@H]2O)c1N [Acadesine, 5-aminoimidazole-4-carboxamide (AICA) riboside]
